Measured values reported in patent US20050245563A1 (Millennium Pharmaceuticals, Inc., priority 2003, published 2005).

The compounds below were run against T1, human Chk1 (GST-Chk1) (Homo sapiens, UniProt O14757) (assay: Chk1 FlashPlate kinase assay). Conditions: 8.7 nM GST-Chk1, 1 uM ATP, 33P incorporation into peptide substrate.
T1 construct: made in house; host or cells: insect cells (baculovirus, Bac-to-Bac)
T1 sequence (O14757 1-476): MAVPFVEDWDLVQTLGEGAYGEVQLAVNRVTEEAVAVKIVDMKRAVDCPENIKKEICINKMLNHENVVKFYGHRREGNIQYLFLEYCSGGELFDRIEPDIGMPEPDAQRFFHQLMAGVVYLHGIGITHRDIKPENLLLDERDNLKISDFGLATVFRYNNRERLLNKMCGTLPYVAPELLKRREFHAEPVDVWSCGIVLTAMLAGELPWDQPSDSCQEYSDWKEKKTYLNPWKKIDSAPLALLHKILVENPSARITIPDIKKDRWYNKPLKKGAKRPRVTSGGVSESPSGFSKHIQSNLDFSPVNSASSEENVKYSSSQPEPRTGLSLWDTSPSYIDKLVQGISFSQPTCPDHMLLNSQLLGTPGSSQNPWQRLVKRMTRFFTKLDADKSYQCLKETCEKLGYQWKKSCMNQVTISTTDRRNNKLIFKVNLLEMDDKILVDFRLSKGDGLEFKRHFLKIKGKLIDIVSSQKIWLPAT
Type: biochemical
Procedure, shortened: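 GST-tagged human Chk1 (8.7 nM), baculovirus-expressed, with 3 uM biotinylated peptide, 1 uM ATP plus ^33P-γ-ATP, in MES/EGTA pH 8.0, DTT, Tween 20, 4% DMSO; 30 min at room temperature. EDTA-stopped; phosphopeptide captured on streptavidin FlashPlates and ^33P counted by scintillation.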

First: Cc1[nH]nc2c1c(=O)n(CCCNC(=O)CCCc1ccccc1)c1ccccc21 [Example 81, N-[3-(3-Methyl-4-oxo-2,4-dihydro-pyrazolo[4,3-c]quinolin-5-yl)-propyl]-4-phenyl-butyramide]
Second: Cc1[nH]nc2c1c(=O)n(CCNC(=O)CCc1ccccc1)c1ccccc21 [Example 92, N-[2-(3-Methyl-4-oxo-2,4-dihydro-pyrazolo[4,3-c]quinolin-5-yl)-ethyl]-3-phenyl-propionamide]
The IC50 of the first is lower: less than 1000 nM for the first, 1000 to 20000 nM for the second.

`Cc1[nH]nc2c1c(=O)n(CCCNC(=O)c1cccnc1)c1ccccc21` [Example 82, N-[3-(3-Methyl-4-oxo-2,4-dihydro-pyrazolo[4,3-c]quinolin-5-yl)-propyl]-nicotinamide] and `Cc1[nH]nc2c1c(=O)n(CCCNC(=O)c1ccccc1Cl)c1ccccc21` [Example 84, 2-Chloro-N-[3-(3-methyl-4-oxo-2,4-dihydro-pyrazolo[4,3-c]quinolin-5-yl)-propyl]-benzamide] cannot be ordered by IC50: less than 1000 nM for the first, less than 1000 nM for the second.

First: Cc1[nH]nc2c1c(=O)n(CCCNS(=O)(=O)c1ccccc1)c1ccccc21 [Example 83, N-[3-(3-Methyl-4-oxo-2,4-dihydro-pyrazolo[4,3-c]quinolin-5-yl)-propyl]-benzenesulfonamide]
Second: Cc1[nH]nc2c1c(=O)n(CCNS(=O)(=O)c1ccccc1)c1ccccc21 [Example 110, N-[2-(3-Methyl-4-oxo-2,4-dihydro-pyrazolo[4,3-c]quinolin-5-yl)-ethyl]-benzene sulfonamide]
The IC50 of the first is lower: less than 1000 nM for the first, 1000 to 20000 nM for the second.

First: Cc1[nH]nc2c1c(=O)n(CCCNC(=O)c1ccc(C(C)(C)C)cc1)c1ccccc21 [Example 85, 4-tert-Butyl-N-[3-(3-methyl-4-oxo-2,4-dihydro-pyrazolo[4,3-c]quinolin-5-yl)-propyl]-benzamide]
Second: Cc1[nH]nc2c1c(=O)n(CCNC(=O)c1ccc(Cl)cc1)c1ccccc21 [Example 90, 4-Chloro-N-[2-(3-methyl-4-oxo-2,4-dihydro-pyrazolo[4,3-c]quinolin-5-yl)-ethyl]-benzamide]
The IC50 of the first is lower: less than 1000 nM for the first, 1000 to 20000 nM for the second.

`CC(=O)NCCCn1c(=O)c2c(C)[nH]nc2c2ccccc21` [Example 86, N-[3-(3-Methyl-4-oxo-2,4-dihydro-pyrazolo[4,3-c]quinolin-5-yl)-propyl]-acetamide] and `Cc1[nH]nc2c1c(=O)n(CCCNC(=O)CCCN)c1ccccc21` [Example 106, 4-Amino-N-[3-(3-methyl-4-oxo-2,4-dihydro-pyrazolo[4,3-c]quinolin-5-yl)-propyl]-butyramide] cannot be ordered by IC50: less than 1000 nM for the first, less than 1000 nM for the second.

First: Cc1n[nH]c2c1c(=O)n(CCNC(=O)Nc1ccccc1)c1ccccc21 [Example 87]
Second: Cc1n[nH]c2c1c(=O)n(CCNC(=O)C(N)Cc1ccccc1)c1ccccc21 (stereo not shown) [Example 105, 2-Amino-N-[2-(3-methyl-4-oxo-1,4-dihydro-pyrazolo[4,3-c]quinolin-5-yl)-ethyl]-3-phenyl-propionamide]
The IC50 of the first is higher: 1000 to 20000 nM for the first, less than 1000 nM for the second. The second is the more potent here.

`COc1ccc(Cl)cc1NC(=O)NCCn1c(=O)c2c(C)n[nH]c2c2ccccc21` [Example 89, 1-(5-Chloro-2-methoxy-phenyl)-3-[2-(3-methyl-4-oxo-1,4-dihydro-pyrazolo[4,3-c]quinolin-5-yl)-ethyl]-urea] and `COc1ccc(C(=O)NCCn2c(=O)c3c(C)[nH]nc3c3ccccc32)cc1` [Example 91, 4-Methoxy-N-[2-(3-methyl-4-oxo-2,4-dihydro-pyrazolo[4,3-c]quinolin-5-yl)-ethyl]-benzamide] fall in the same range of IC50: 1000 to 20000 nM for the first, 1000 to 20000 nM for the second.

`Cc1[nH]nc2c1c(=O)n(CCNC(=O)C1CCCCC1)c1ccccc21` [Example 93, Cyclohexanecarboxylic acid [2-(3-methyl4-oxo-2,4-dihydro-pyrazolo[4,3-c]quinolin-5-yl)-ethyl]-amide] and `Cc1[nH]nc2c1c(=O)n(CCNC(=O)C1CCCC1)c1ccccc21` [Example 94, Cyclopentanecarboxylic acid [2-(3-methyl-4-oxo-2,4-dihydro-pyrazolo[4,3-c]quinolin-5-yl)-ethyl]-amide] fall in the same range of IC50: 1000 to 20000 nM for the first, 1000 to 20000 nM for the second.

First: Cc1[nH]nc2c1c(=O)n(CCCNC(=O)C(Cc1ccc(F)cc1)NC(=O)OC(C)(C)C)c1ccccc21 (stereo not shown) [Example 95, {2-(4-Fluoro-phenyl)-1-[3-(3-methyl-4-oxo-2,4-dihydro-pyrazolo[4,3-c]quinolin-5-yl)-propylcarbamoyl]-ethyl}-carbamic acid tert-butyl ester]
Second: Cc1[nH]nc2c1c(=O)n(CCCNC(=O)C(Cc1ccc(Cl)cc1)NC(=O)OC(C)(C)C)c1ccccc21 (stereo not shown) [Example 96, {2-(4-Chloro-phenyl)-1-[3-(3-methyl-4-oxo-2,4-dihydro-pyrazolo[4,3-c]quinolin-5-yl)-propylcarbamoyl]-ethyl}-carbamic acid tert-butyl ester]
The IC50 of the first is lower: 1000 to 20000 nM for the first, greater than 20000 nM for the second.

`Cc1n[nH]c2c1c(=O)n(CCNC(=O)C(Cc1ccccc1)NC(=O)OC(C)(C)C)c1ccccc21` (stereo not shown) [Example 97, {1-[2-(3-Methyl-4-oxo-1,4-dihydro-pyrazolo[4,3-c]quinolin-5-yl)-ethylcarbamoyl]-2-phenyl-ethyl}-carbamic acid tert-butyl ester] and `Cc1[nH]nc2c1c(=O)n(CCCNC(=O)C(Cc1ccc(OC(C)(C)C)cc1)NC(=O)OC(C)(C)C)c1ccccc21` (stereo not shown) [Example 98, {2-(4-tert-Butoxy-phenyl)-1-[3-(3-methyl-4-oxo-2,4-dihydro-pyrazolo[4,3-c]quinolin-5-yl)-propylcarbamoyl]-ethyl}-carbamic acid tert-butyl ester] fall in the same range of IC50: 1000 to 20000 nM for the first, 1000 to 20000 nM for the second.

`Cc1[nH]nc2c1c(=O)n(CCCNC(=O)CCC(NC(=O)OC(C)(C)C)C(=O)OC(C)(C)C)c1ccccc21` (stereo not shown) [Example 99, 2-tert-Butoxycarbonylamino-4-[3-(3-methyl-4-oxo-2,4-dihydro-pyrazolo[4,3-c]quinolin-5-yl)-propylcarbamoyl]-butyric acid tert-butyl ester] and `Cc1[nH]nc2c1c(=O)n(CCCNC(=O)CCNC(=O)OC(C)(C)C)c1ccccc21` [Example 101, {2-[3-(3-Methyl-4-oxo-2,4-dihydro-pyrazolo[4,3-c]quinolin-5-yl)-propylcarbamoyl]-ethyl}-carbamic acid tert-butyl ester] fall in the same range of IC50: 1000 to 20000 nM for the first, 1000 to 20000 nM for the second.

`Cc1[nH]nc2c1c(=O)n(CCCNC(=O)CCCNC(=O)OC(C)(C)C)c1ccccc21` [Example 100, {3-[3-(3-Methyl-4-oxo-2,4-dihydro-pyrazolo[4,3-c]quinolin-5-yl)-propylcarbamoyl]-propyl}-carbamic acid tert-butyl ester] and `Cc1[nH]nc2c1c(=O)n(CCCNC(=O)CNC(=O)OC(C)(C)C)c1ccccc21` [Example 102, {[3-(3-Methyl-4-oxo-2,4-dihydro-pyrazolo[4,3-c]quinolin-5-yl)-propylcarbamoyl]-methyl}-carbamic acid tert-butyl ester] fall in the same range of IC50: 1000 to 20000 nM for the first, 1000 to 20000 nM for the second.

Compared with `Cc1[nH]nc2c1c(=O)n(CCCNC(=O)C1CCC(=O)N1)c1ccccc21` (stereo not shown) [Example 103, 5-Oxo-pyrrolidine-2-carboxylic acid [3-(3-methyl-4-oxo-2,4-dihydro-pyrazolo[4,3-c]quinolin-5-yl)-propyl]-amide], `Cc1[nH]nc2c1c(=O)n(CCNC(=O)N1CCOCC1)c1ccccc21` [Example 112, Morpholine-4-carboxylic acid [2-(3-methyl-4-oxo-2,4-dihydro-pyrazolo[4,3-c]quinolin-5-yl)-ethyl]-amide] is higher in IC50: less than 1000 nM for the first, 1000 to 20000 nM for the second.

`Cc1[nH]nc2c1c(=O)n(CCCNC(=O)[C@@H](N)Cc1ccc(F)cc1)c1ccccc21` [Example 104, 2-Amino-3-(4-fluoro-phenyl)-N-[3-(3-methyl-4-oxo-2,4-dihydro-pyrazolo[4,3-c]quinolin-5-yl)-propyl]-propionamide] and `Cc1[nH]nc2c1c(=O)n(CCCNC(=O)C(N)Cc1ccc(O)cc1)c1ccccc21` (stereo not shown) [Example 108, 2-Amino-3-(4-hydroxy-phenyl)-N-[3-(3-methyl-4-oxo-2,4-dihydro-pyrazolo[4,3-c]quinolin-5-yl)-propyl]-propionamide] cannot be ordered by IC50: less than 1000 nM for the first, less than 1000 nM for the second.

First: Cc1[nH]nc2c1c(=O)n(CCCNC(=O)C(N)Cc1ccc(OCc3ccccc3)cc1)c1ccccc21 (stereo not shown) [Example 107, 2-Amino-3-(4-benzyloxy-phenyl)-N-[3-(3-methyl-4-oxo-2,4-dihydro-pyrazolo[4,3-c]quinolin-5-yl)-propyl]-propionamide]
Second: Cc1[nH]nc2c1c(=O)n(CCCNC(=O)C(N)Cc1ccc(Cl)cc1)c1ccccc21 (stereo not shown) [Example 117, 2-Amino-3-(4-chloro-phenyl)-N-[3-(3-methyl-4-oxo-2,4-dihydro-pyrazolo[4,3-c]quinolin-5-yl)-propyl]-propionamide]
The IC50 of the first is higher: 1000 to 20000 nM for the first, less than 1000 nM for the second. The second is the more potent here.

`NCCCn1c(=O)c2c[nH]nc2c2cc(Cl)ccc21` [Example 109, 5-(3-Amino-propyl)-8-chloro-2,5-dihydro-pyrazolo[4,3-c]quinolin-4-one] and `Cc1[nH]nc2c1c(=O)n(CCCN)c1ccc(N3CCCC3)cc21` [Example 120] cannot be ordered by IC50: less than 1000 nM for the first, less than 1000 nM for the second.

`CCCCNc1ccc2c(c1)c1n[nH]c(C)c1c(=O)n2CCCN` [Example 116] and `Cc1[nH]nc2c1c(=O)n(CCCNC(=O)OCc1ccccc1Br)c1ccccc21` [Example 119, [3-(3-Methyl-4-oxo-2,4-dihydro-pyrazolo[4,3-c]quinolin-5-yl)-propyl]-carbamic acid 2-bromo-benzyl ester] cannot be ordered by IC50: less than 1000 nM for the first, less than 1000 nM for the second.
